43 molecules from US20260132127A1, “NOVEL SPIRO COMPOUND” (MITSUBISHI TANABE PHARMA CORPORATION, priority 2021, published 2026) can be followed below.

In the test the target is T1, human TRH-DE (Homo sapiens, UniProt Q9UKU6).
T1 construct: expressed in transfected cells; host or cells: Expi 293 cells (transient expression), membrane fraction
T1 sequence (Q9UKU6 1-1069): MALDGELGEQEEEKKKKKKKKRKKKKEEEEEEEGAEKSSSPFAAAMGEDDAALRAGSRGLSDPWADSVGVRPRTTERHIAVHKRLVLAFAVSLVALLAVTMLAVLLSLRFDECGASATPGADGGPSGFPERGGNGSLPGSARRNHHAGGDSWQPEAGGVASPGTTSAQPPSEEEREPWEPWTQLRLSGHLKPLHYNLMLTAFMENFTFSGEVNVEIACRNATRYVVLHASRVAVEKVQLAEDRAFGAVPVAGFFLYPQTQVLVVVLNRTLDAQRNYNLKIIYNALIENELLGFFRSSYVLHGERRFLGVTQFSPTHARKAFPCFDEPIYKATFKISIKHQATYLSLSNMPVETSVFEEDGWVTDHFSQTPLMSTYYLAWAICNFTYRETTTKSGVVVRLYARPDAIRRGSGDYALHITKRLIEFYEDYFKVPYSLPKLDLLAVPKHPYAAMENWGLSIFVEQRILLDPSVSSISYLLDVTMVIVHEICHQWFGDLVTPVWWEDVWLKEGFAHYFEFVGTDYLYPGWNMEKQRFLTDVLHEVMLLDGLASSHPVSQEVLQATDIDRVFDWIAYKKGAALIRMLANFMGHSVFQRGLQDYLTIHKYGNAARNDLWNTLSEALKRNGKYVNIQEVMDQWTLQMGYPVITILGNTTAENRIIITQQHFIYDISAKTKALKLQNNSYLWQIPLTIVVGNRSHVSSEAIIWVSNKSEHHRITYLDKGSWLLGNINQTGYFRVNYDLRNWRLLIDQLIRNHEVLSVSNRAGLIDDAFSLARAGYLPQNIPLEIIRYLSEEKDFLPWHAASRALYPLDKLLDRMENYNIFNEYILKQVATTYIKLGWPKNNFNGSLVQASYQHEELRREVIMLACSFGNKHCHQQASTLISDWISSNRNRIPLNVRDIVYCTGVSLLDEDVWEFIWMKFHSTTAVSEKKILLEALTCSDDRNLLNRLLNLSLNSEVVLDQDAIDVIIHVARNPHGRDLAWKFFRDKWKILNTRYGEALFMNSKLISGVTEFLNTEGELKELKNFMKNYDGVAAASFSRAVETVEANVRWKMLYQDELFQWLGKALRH
Put plainly: TRH-DE inhibition test (RapidFire MS measurement of product Cyclo (His-Pro)). It counts as biochemical. To be noted: membrane fraction of Expi 293 cells expressing human TRH-DE; 10 μM TRH substrate; room temperature, 2 hours; 16-point concentration test. Put shortly:
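Inhibition derived from product/internal-standard ratios of Cyclo(His-Pro), quantified by RapidFire triple-quadrupole MS after acetonitrile:methanol quench, with IC50 fitted over 16 concentrations. Enzyme source: membranes of Expi 293 cells transiently expressing human TRH-DE, 4 μg/ml, pH 7.4 phosphate buffer. Incubation with 10 μM substrate ran 2 h at room temperature.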
`C[C@@H]1COc2c(cnn2C(C)(C)C)C(=O)N1C1CC2(C1)CN(S(=O)(=O)c1ccccc1F)C2` [Example 203]: the IC50 (commonly the concentration that gives 50% inhibition) was determined as 34 nM.

Regarding `C[C@@H]1COc2c(cnn2-c2ccccc2)C(=O)N1C1CC2(C1)CN(S(=O)(=O)c1ccccc1F)C2` [Example 204], half-maximal inhibition (IC50) was put at 34 nM.

With `Cc1nn(C)c2c1C(=O)N(C1CC3(C1)CN(S(=O)(=O)c1ccccc1F)C3)[C@H](C)CO2` [Example 205], the IC50 was 14 nM.

`C[C@@H]1COc2c(c(C3CC3)nn2C)C(=O)N1C1CC2(C1)CN(S(=O)(=O)c1ccccc1F)C2` [Example 206]: the midpoint of inhibition, the IC50, lay at 5 nM.

`Cc1nn(C2CC2)c2c1C(=O)N(C1CC3(C1)CN(S(=O)(=O)c1ccccc1F)C3)[C@H](C)CO2` [Example 207] returned a half-maximal inhibitory concentration (IC50) of 11 nM.

The molecule `C[C@@H]1COc2c(c(C3CC3)nn2C2CC2)C(=O)N1C1CC2(C1)CN(S(=O)(=O)c1ccccc1F)C2` [Example 208] came in with an IC50 of 14 nM.

For the molecule `C[C@@H]1COc2nn(C)cc2C(=O)N1C1CC2(C1)CN(S(=O)(=O)c1ccccc1F)C2` [Example 209], the IC50 amounted to 22 nM.

For `C[C@@H]1COc2nn(C3CC3)cc2C(=O)N1C1CC2(C1)CN(S(=O)(=O)c1ccccc1F)C2` [Example 210], 21 nM corresponded to half-maximal inhibition (IC50).

As to `Cc1c2c(nn1C)OC[C@@H](C)N(C1CC3(C1)CN(S(=O)(=O)c1ccccc1F)C3)C2=O` [Example 211], the IC50 was 13 nM.

`C[C@@H]1COc2nn(C)c(Br)c2C(=O)N1C1CC2(C1)CN(S(=O)(=O)c1ccccc1F)C2` [Example 212] displayed an IC50 of 23 nM.

Molecule `C[C@@H]1CCn2c(cnc2Br)C(=O)N1C1CC2(C1)CN(S(=O)(=O)c1ccccc1F)C2` [Example 214] returned a half-inhibitory concentration (IC50) of 11 nM.

For `C[C@@H]1CCn2cnc(Br)c2C(=O)N1C1CC2(C1)CN(S(=O)(=O)c1ccccc1F)C2` [Example 215], it took 26 nM to reach half-maximal inhibition (IC50).

`Cc1nc(Br)n2c1C(=O)N(C1CC3(C1)CN(S(=O)(=O)c1ccccc1F)C3)[C@H](C)CC2` [Example 216] yielded an IC50 of 46 nM.

`C[C@@H]1COc2conc2C(=O)N1C1CC2(C1)CN(S(=O)(=O)c1ccccc1F)C2` [Example 217]: half-maximal inhibition (IC50) required 35 nM.

`Cc1onc2c1C(=O)N(C1CC3(C1)CN(S(=O)(=O)c1ccccc1F)C3)[C@H](C)CO2` [Example 218]: the midpoint of inhibition, the IC50, lay at 37 nM.

`C[C@@H]1COc2noc(C(C)(C)C)c2C(=O)N1C1CC2(C1)CN(S(=O)(=O)c1ccccc1F)C2` [Example 219] had an IC50 of 38 nM.

Molecule `C[C@@H]1COc2noc(C3CC3)c2C(=O)N1C1CC2(C1)CN(S(=O)(=O)c1ccccc1F)C2` [Example 220] registered an IC50 of 12 nM.

The molecule `C[C@@H]1CCN2CCC[C@H]2C(=O)N1C1CC2(C1)CN(S(=O)(=O)c1ccccc1F)C2` [Example 221] came in with an IC50 of 988 nM.

Turning to `C[C@@H]1CCN2CCC[C@H]2C(=O)N1C1CC2(C1)CN(S(=O)(=O)c1ccccc1F)C2` [Example 222], the midpoint of inhibition, the IC50, lay at 449 nM.

On to `C[C@@H]1Cn2nc(Cl)cc2C(=O)N1C1CC2(C1)CN(S(=O)(=O)c1ccccc1F)C2` [Example 223], for which the IC50 amounted to 18 nM.

Consider `C[C@@H]1Cn2nc(C(C)(F)F)cc2C(=O)N1C1CC2(C1)CN(S(=O)(=O)c1ccccc1F)C2` [Example 224], for which the IC50 is 41 nM.

`C[C@@H]1Cn2nc(C3CC3)cc2C(=O)N1C1CC2(C1)CN(S(=O)(=O)c1ccccc1F)C2` [Example 225] returned an IC50 of 11 nM.

The molecule `C[C@@H]1Cn2nc(C3(F)CC3)cc2C(=O)N1C1CC2(C1)CN(S(=O)(=O)c1ccccc1F)C2` [Example 226] had an IC50 of 16 nM.

Molecule `C[C@@H]1Cn2nc(C3(C(F)(F)F)CC3)cc2C(=O)N1C1CC2(C1)CN(S(=O)(=O)c1ccccc1F)C2` [Example 227] gave an IC50 of 9 nM.

Consider `C[C@@H]1Cn2nc(C(F)(F)F)cc2C(=O)N1C1CC2(C1)CN(S(=O)(=O)c1ccccc1F)C2` [Example 228], for which the concentration for half-maximal inhibition (IC50) stood at 48 nM.

The molecule `C[C@@H]1Cn2ncc(Cl)c2C(=O)N1C1CC2(C1)CN(S(=O)(=O)c1ccccc1F)C2` [Example 229] returned a half-maximal inhibitory concentration (IC50) of 33 nM.

Take `C[C@@H]1Cn2ncc(Br)c2C(=O)N1C1CC2(C1)CN(S(=O)(=O)c1ccccc1F)C2` [Example 230]: the IC50 turned out to be 19 nM.

`C[C@@H]1Cn2nc(C3CC3)c(F)c2C(=O)N1C1CC2(C1)CN(S(=O)(=O)c1ccccc1F)C2` [Example 231] showed a concentration for half-maximal inhibition (IC50) of 13 nM.

The molecule `C[C@@H]1Cn2nc(F)c(Br)c2C(=O)N1C1CC2(C1)CN(S(=O)(=O)c1ccccc1F)C2` [Example 232] had an IC50 of 21 nM.

For the molecule `C[C@@H]1Cn2cnc(Br)c2C(=O)N1C1CC2(C1)CN(S(=O)(=O)c1ccccc1F)C2` [Example 233], the IC50 came out at 31 nM.

As for `C[C@@H]1COc2nc([C@H]3C[C@H]3F)sc2C(=O)N1C1CC2(C1)CN(S(=O)(=O)c1ccccc1F)C2` [Example 234, (6R)-2-[(1S,2R)-2-fluorocyclopropyl]-7-[2-(2-fluorophenyl)sulfonyl-2-azaspiro[3.3]heptan-6-yl]-6-methyl-5,6-dihydrothiazolo[5,4-f][1,4]oxazepin-8-one], the IC50 is 4 nM.

As for `C[C@@H]1COc2nc([C@@H]3C[C@H]3F)sc2C(=O)N1C1CC2(C1)CN(S(=O)(=O)c1ccccc1F)C2` [Example 235, (6R)-2-[(1R,2R)-2-fluorocyclopropyl]-7-[2-(2-fluorophenyl)sulfonyl-2-azaspiro[3.3]heptan-6-yl]-6-methyl-5,6-dihydrothiazolo[5,4-f][1,4]oxazepin-8-one], the IC50 came to 3 nM.

In turn, `C[C@@H]1COc2nc([C@@H]3C[C@@H]3F)sc2C(=O)N1C1CC2(C1)CN(S(=O)(=O)c1ccccc1F)C2` [Example 236, (6R)-2-[(1R,2S)-2-fluorocyclopropyl]-7-[2-(2-fluorophenyl)sulfonyl-2-azaspiro[3.3]heptan-6-yl]-6-methyl-5,6-dihydrothiazolo[5,4-f][1,4]oxazepin-8-one] had an IC50 of 2 nM.

With `C[C@@H]1COc2nc([C@H]3C[C@@H]3F)sc2C(=O)N1C1CC2(C1)CN(S(=O)(=O)c1ccccc1F)C2` [Example 237, (6R)-2-[(1S,2S)-2-fluorocyclopropyl]-7-[2-(2-fluorophenyl)sulfonyl-2-azaspiro[3.3]heptan-6-yl]-6-methyl-5,6-dihydrothiazolo[5,4-f][1,4]oxazepin-8-one], it took 3 nM to reach half-maximal inhibition (IC50).

`C[C@@H]1Cn2c(cnc2C(F)(F)F)C(=O)N1C1CC2(C1)CN(S(=O)(=O)c1ccccc1F)C2` [Example 238, (6R)-7-[2-(2-fluorophenyl)sulfonyl-2-azaspiro[3.3]heptan-6-yl]-6-methyl-3-(trifluoromethyl)-5,6-dihydroimidazo[1,5-a]pyrazin-8-one] returned an IC50 of 357 nM.

As for `CC1COc2ccccc2C(=O)N1C1CC2(C1)CN(S(=O)(=O)c1ccccc1F)C2` (stereo not shown) [Example 239, 4-[2-(2-fluorophenyl)sulfonyl-2-azaspiro[3.3]heptan-6-yl]-3-methyl-2,3-dihydro-1,4-benzoxazepin-5-one], the IC50 was 11 nM.

Turning to `CC1Cc2ccccc2C(=O)N1C1CC2(C1)CN(S(=O)(=O)c1ccccc1F)C2` (stereo not shown) [Example 240], 14 nM corresponded to half-maximal inhibition (IC50).

As for `Cc1nn(C2CC3(C2)CN(S(=O)(=O)c2ccccc2)C3)c(=O)c2ccccc12` [Example 241], the IC50 is 616 nM.

`Cc1nn(C2CC3(C2)CN(S(=O)(=O)c2ccccc2F)C3)c(=O)c2ccccc12` [Example 242]: inhibition was half-maximal at 655 nM (IC50).

`Cc1nn(C2CC3(C2)CN(S(=O)(=O)c2ccccc2F)C3)c(=O)c2ncccc12` [Example 243] displayed an IC50 of 436 nM.

Molecule `O=C1c2ccccc2C2(CC2)N1C1CC2(C1)CN(S(=O)(=O)c1ccccc1F)C2` [Example 244] displayed a 50% inhibitory concentration (IC50) of 42 nM.

Turning to `CCN1C[C@@H](C)N(C2CC3(C2)CN(S(=O)(=O)c2ccccc2F)C3)C(=O)c2ncccc21` [Example 245, (3R)-1-ethyl-4-[2-(2-fluorophenyl)sulfonyl-2-azaspiro[3.3]heptan-6-yl]-3-methyl-2,3-dihydropyrido[3,2-e][1,4]diazepin-5-one], half-maximal inhibition (IC50) was put at 2 nM.

Molecule `COCCCN1C[C@@H](C)N(C2CC3(C2)CN(S(=O)(=O)c2ccccc2F)C3)C(=O)c2ncccc21` [Example 246] returned an IC50 of 22 nM.
